The molecules below were run against T1, G1 APOL1 (Homo sapiens, UniProt O14791, I384M/S342G) (assay: Acute APOL1 Thallium Assay with Inducible Stable Clones of HEK 293 Cells). Details: not given.
T1 construct: expressed in transfected cells
T1 sequence (O14791 28-398 S342G/I384M): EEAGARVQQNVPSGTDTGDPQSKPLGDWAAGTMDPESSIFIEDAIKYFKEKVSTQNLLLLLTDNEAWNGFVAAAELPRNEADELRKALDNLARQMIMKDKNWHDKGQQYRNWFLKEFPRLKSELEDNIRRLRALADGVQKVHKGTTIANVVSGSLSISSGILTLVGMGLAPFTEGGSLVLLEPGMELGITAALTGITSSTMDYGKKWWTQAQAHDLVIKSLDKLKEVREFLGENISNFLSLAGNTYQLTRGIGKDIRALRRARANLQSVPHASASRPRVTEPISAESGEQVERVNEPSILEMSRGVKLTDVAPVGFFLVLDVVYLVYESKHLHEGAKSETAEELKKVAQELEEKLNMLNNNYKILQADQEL
Assay type: cell-based
Method in brief: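 Pore activity was read as the fluorescence increase from Tl+ entering cells loaded with an AM-ester thallium indicator dye. The cells were tetracycline-inducible HEK293 T-Rex expressing G1 APOL1 (clone DC3.25), induced when plated at 26000 per well and incubated at 37° C.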

Row | Compound | IC50 [nM]
1 | CN(C)CCc1c(-c2ccc(F)cc2)[nH]c2c(F)cc(F)cc12 [Compound 429, 2-[5,7-difluoro-2-(4-fluorophenyl)-1H-indol-3-yl]-N,N-dimethyl-ethanamine] | > 1000

Same assay, conditions: HEK 293 inducible stable clones, G1 APOL1; read-out: Thallium Assay (IC50)

Row | IC50 [nM] | Compound
2 | > 1000 | CC(CC(=O)NC(CO)C(F)(F)F)c1c(-c2ccc(F)cc2)[nH]c2c(F)cc(F)cc12 (single isomer, unassigned) [Compound 514]
3 | 250 to 1000 | C[C@H](O)CNC(=O)OCCc1c(-c2ccc(F)cc2)[nH]c2c(F)cc(F)cc12 [Compound 462]
4 | > 1000 | O=C(NCCc1c(-c2ccc(F)cc2)[nH]c2c(F)cc(F)cc12)c1ccnc(C(F)(F)F)c1 [Compound 369]
5 | > 1000 | O=C(NCCc1c(-c2ccc(F)cc2)[nH]c2c(F)cc(F)cc12)c1cncnc1 [Compound 400]
6 | > 1000 | CN1CC(NC(=O)OCCc2c(-c3ccc(F)cc3)[nH]c3c(F)cc(F)cc23)CC1=O (centres unmarked) [Compound 494]
7 | > 1000 | CN(C)S(=O)(=O)NCCc1c(-c2ccc(F)cc2)[nH]c2c(F)cc(F)cc12 [Compound 425]
8 | > 1000 | O=C1NC(=O)C(CCS(=O)(=O)NCCc2c(-c3ccc(F)cc3)[nH]c3c(F)cc(F)cc23)N1 (centres unmarked) [Compound 420, N-(2-(5,7-difluoro-2-(4-fluorophenyl)-1H-indol-3-yl)ethyl)-2-(2,5-dioxoimidazolidin-4-yl)ethane-1-sulfonamide]
9 | 250 to 1000 | NC(=O)C1(NC(=O)OCCc2c(-c3ccc(F)cc3)[nH]c3c(F)cc(F)cc23)CC1 [Compound 473]
10 | > 1000 | OC1(CC#Cc2c(-c3ccc(F)cc3)[nH]c3c(F)cc(F)cc23)COC1 [Compound 524, 3-[3-[5,7-difluoro-2-(4-fluorophenyl)-1H-indol-3-yl]prop-2-ynyl]oxetan-3-ol]
11 | > 1000 | Cc1ccn(CC(=O)NCCc2c(-c3ccc(F)cc3)[nH]c3c(F)cc(F)cc23)n1 [Compound 378]
12 | 250 to 1000 | N#CC(NC(=O)OCCc1c(-c2ccc(F)cc2)[nH]c2c(F)cc(F)cc12)C(N)=O (centres unmarked) [Compound 456]
13 | > 1000 | CO[C@H]1C[C@@H](NC(=O)OCCc2c(-c3ccc(F)cc3)[nH]c3c(F)cc(F)cc23)C1 [Compound 496]
14 | > 1000 | O=S(=O)(NCCc1c(-c2ccc(F)cc2)[nH]c2c(F)cc(F)cc12)C1CCOCC1 [Compound 423]
15 | > 1000 | Cn1cnc(C(=O)NCCc2c(-c3ccc(F)cc3)[nH]c3c(F)cc(F)cc23)c1 [Compound 389]
16 | > 1000 | Cc1occc1C(=O)NCCc1c(-c2ccc(F)cc2)[nH]c2c(F)cc(F)cc12 [Compound 394]
17 | 250 to 1000 | O=C(NCCc1c(-c2ccc(F)cc2)[nH]c2c(F)cc(F)cc12)C1CC1 [Compound 415]
18 | > 1000 | Cn1cnc(CNC(=O)OCCc2c(-c3ccc(F)cc3)[nH]c3c(F)cc(F)cc23)c1 [Compound 478]
19 | < 250 | O=C(/C=C/c1c(-c2ccc(F)cc2)[nH]c2c(F)cc(F)cc12)N[C@H]1CCNC1=O [Compound 519, (E)-3-[5,7-difluoro-2-(4-fluorophenyl)-1H-indol-3-yl]-N-[(3S)-2-oxopyrrolidin-3-yl]prop-2-enamide]
20 | > 1000 | O=C(Cn1nccn1)NCCc1c(-c2ccc(F)cc2)[nH]c2c(F)cc(F)cc12 [Compound 387]
21 | > 1000 | O=C(NCCc1c(-c2ccc(F)cc2)[nH]c2c(F)cc(F)cc12)c1ncccn1 [Compound 397]
22 | > 1000 | Cn1ccnc1CCC(=O)NCCc1c(-c2ccc(F)cc2)[nH]c2c(F)cc(F)cc12 [Compound 371]
23 | 250 to 1000 | O=C(N[C@H]1C[C@H](O)C1)OCCc1c(-c2ccc(F)cc2)[nH]c2c(F)cc(F)cc12 [Compound 464]
24 | > 1000 | Cc1cnc(CNC(=O)OCCc2c(-c3ccc(F)cc3)[nH]c3c(F)cc(F)cc23)o1 [Compound 487]

Further lines, the molecule ahead of its results:

Row | Compound | IC50 [nM]
25 | O=C(NCCc1c(-c2ccc(F)cc2)[nH]c2c(F)cc(F)cc12)c1c[nH]nc1C(F)(F)F [Compound 316] | > 1000
26 | CC(C)(O)CNC(=O)NCCc1c(-c2ccc(F)cc2)[nH]c2c(F)cc(F)cc12 [Compound 279] | > 1000
27 | O=C1CC[C@@H](C(=O)NCCc2c(-c3ccc(F)cc3)[nH]c3c(F)cc(F)cc23)N1 [Compound 338] | > 1000
28 | O=C1CCC[C@@H](C(=O)NCCc2c(-c3ccc(F)cc3)[nH]c3c(F)cc(F)cc23)N1 [Compound 329] | > 1000
29 | O=C(CCc1c(-c2ccc(F)cc2)[nH]c2c(F)cc(Cl)cc12)NC(CO)CF (centres unmarked) [Compound 196] | 250 to 1000
30 | CC(CO)CNC(=O)NCCc1c(-c2ccc(F)cc2)[nH]c2c(F)cc(F)cc12 (racemic) [Compound 280] | > 1000
31 | O=C(NCCc1ccncc1)NCCc1c(-c2ccc(F)cc2)[nH]c2c(F)cc(F)cc12 [Compound 288] | > 1000
32 | C[C@H](NC(=O)NCCc1c(-c2ccc(F)cc2)[nH]c2c(F)cc(F)cc12)C(C)(C)O [Compound 268] | > 1000
33 | O=C1N[C@H](C(=O)NCCc2c(-c3ccc(F)cc3)[nH]c3c(F)cc(F)cc23)CCO1 [Compound 323] | > 1000
34 | O=C(CO)NCCc1c(-c2ccc(F)cc2)[nH]c2c(F)cc(F)cc12 [Compound 365] | > 1000
35 | O=C(NCCO)NCCc1c(-c2ccc(F)cc2)[nH]c2c(F)cc(F)cc12 [Compound 286] | > 1000
36 | O=C(CCc1c(-c2ccccc2)[nH]c2ccc(F)cc12)N[C@@H](CO)C(F)F [Compound 235, N-[(1S)-2,2-difluoro-1-(hydroxymethyl)ethyl]-3-(5-fluoro-2-phenyl-1H-indol-3-yl)propanamide] | < 250
37 | Cn1cnc(CNC(=O)CCCc2c(-c3ccc(F)cc3)[nH]c3c(F)cc(F)cc23)c1 [Compound 244] | > 1000
38 | CC(C)(C)OC(=O)NC1(C(=O)NCCc2c(-c3ccc(F)cc3)[nH]c3c(F)cc(F)cc23)CCC1 [Compound 311] | > 1000
39 | NC(=O)C(=O)NCCc1c(-c2ccc(F)cc2)[nH]c2c(F)cc(F)cc12 [Compound 364] | 250 to 1000
40 | CC(O)(CO)CNC(=O)CCCc1c(-c2ccc(F)cc2)[nH]c2c(F)cc(F)cc12 (centres unmarked) [Compound 250] | > 1000
41 | Cc1cc(F)c2[nH]c(-c3ccc(F)cc3)c(CCC(=O)N[C@@H](CO)C(F)(F)F)c2c1 [Compound 214] | < 250
42 | O=C(CCCc1c(-c2ccc(F)cc2)[nH]c2c(F)cc(F)cc12)N[C@H]1C[C@@H](CO)NC1=O [Compound 256] | > 1000
43 | O=C1N[C@H](C(=O)NCCc2c(-c3ccc(F)cc3)[nH]c3c(F)cc(F)cc23)CO1 [Compound 336] | > 1000
44 | Cc1cc(F)c2[nH]c(-c3ccc(F)cc3)c(CCC(=O)NCC(N)=O)c2c1 [Compound 223] | > 1000
45 | O=C(CCc1c(-c2ccc(F)cc2)[nH]c2c(F)cc(Cl)cc12)NC(CO)CO [Compound 212] | 250 to 1000

Row | Compound | IC50 [nM]
46 | C[C@H](O)CNC(=O)NCCc1c(-c2ccc(F)cc2)[nH]c2c(F)cc(F)cc12 [Compound 284] | > 1000
47 | O=C(NCCc1c(-c2ccc(F)cc2)[nH]c2c(F)cc(F)cc12)NCc1ccoc1 [Compound 299] | > 1000
48 | O=C(NCCc1c(-c2ccc(F)cc2)[nH]c2c(F)cc(F)cc12)C1CCCCC1O (centres unmarked) [Compound 326] | 250 to 1000
49 | NC(=O)[C@@H](CO)NC(=O)CCc1c(-c2ccc(F)cc2)[nH]c2c(F)cc(Cl)cc12 [Compound 202] | > 1000
50 | O=C(CCc1c(-c2ccc(F)cc2)[nH]c2c(F)cc(F)cc12)N[C@H]1C[C@H](O)C1 [Compound 159] | > 1000
51 | C[C@@H]1NC(=O)[C@H]1NC(=O)CCc1c(-c2ccc(F)cc2)[nH]c2c(F)cc(F)cc12 [Compound 96] | 250 to 1000
52 | Cc1cc(F)c2[nH]c(-c3ccc(F)cc3)c(CCC(=O)N[C@H](CO)C(F)(F)F)c2c1 [Compound 224] | > 1000
53 | O=C(NCCc1c(-c2ccc(F)cc2)[nH]c2c(F)cc(F)cc12)C(O)C(F)(F)F (centres unmarked) [Compound 327] | 250 to 1000
54 | O=C(CCc1c(-c2ccc(F)cc2)[nH]c2c(F)cc(Cl)cc12)NCCO [Compound 199] | 250 to 1000
55 | C[C@H](CO)NC(=O)CCc1c(-c2ccc(F)cc2)[nH]c2c(F)cc(Cl)cc12 [Compound 208] | < 250
56 | Cc1cc(F)c2[nH]c(-c3ccc(F)cc3)c(CCC(=O)NC[C@H](O)CO)c2c1 [Compound 226] | > 1000
57 | NC(=O)C1(NC(=O)CCc2c(-c3ccc(F)cc3)[nH]c3c(F)cc(F)cc23)CC1 [Compound 107] | 250 to 1000
58 | Cc1cc(F)c2[nH]c(-c3ccc(F)cc3)c(CCC(=O)NC(CO)CF)c2c1 (centres unmarked) [Compound 221] | > 1000
59 | O=C(CCc1c(-c2ccc(F)cc2)[nH]c2c(F)cc(Cl)cc12)N[C@@H](CO)C(F)(F)F [Compound 207] | < 250
60 | CN(C[C@H](O)CO)C(=O)CCc1c(-c2ccc(F)cc2)[nH]c2c(F)cc(Cl)cc12 [Compound 211] | > 1000
61 | O=C(NCCc1c(-c2ccc(F)cc2)[nH]c2c(F)cc(F)cc12)N1CCC[C@H]1CO [Compound 296] | > 1000
62 | Cc1cc(F)c2[nH]c(-c3ccc(F)cc3)c(CCC(=O)NC(C)(CO)CO)c2c1 [Compound 225] | > 1000
63 | O=C1CNC(=O)N1CCc1c(-c2ccc(F)cc2)[nH]c2c(F)cc(F)cc12 [Compound 258, 3-[2-[5,7-difluoro-2-(4-fluorophenyl)-1H-indol-3-yl]ethyl]imidazolidine-2,4-dione] | > 1000
64 | Cc1occc1CNC(=O)NCCc1c(-c2ccc(F)cc2)[nH]c2c(F)cc(F)cc12 [Compound 295] | > 1000
65 | O=C(CCc1c(-c2ccc(F)cc2)[nH]c2c(F)cc(Cl)cc12)NCCCO [Compound 209] | > 1000
